Consider 1 molecule from article PMC4855831, “Cloning, expression and characterization of a β-D-xylosidase from Lactobacillus rossiae DSM 15814^T” (Microbial Cell Factories, 2016).

The test deals with T1, XylA (β-D-xylosidase, LROS_1108) (Furfurilactobacillus rossiae, UniProt A0A0R1REJ8).
T1 construct: gene FD35_GL000933; host Lactococcus lactis subsp. cremoris NZ9000; crude cell extract; from primers N-terminus MKIQNPVL, C-terminus KELPETK; EC 3.2.1.37
Nature of the test: p-nitrophenol release at […] nm, XylA-containing crude cell extract. In kind it is biochemical. The following applies: 5 mM pNPX, 50 mM phosphate buffer pH 5.7, 37.5 °C, 10 min.

T1 sequence (A0A0R1REJ8 entry or part of it): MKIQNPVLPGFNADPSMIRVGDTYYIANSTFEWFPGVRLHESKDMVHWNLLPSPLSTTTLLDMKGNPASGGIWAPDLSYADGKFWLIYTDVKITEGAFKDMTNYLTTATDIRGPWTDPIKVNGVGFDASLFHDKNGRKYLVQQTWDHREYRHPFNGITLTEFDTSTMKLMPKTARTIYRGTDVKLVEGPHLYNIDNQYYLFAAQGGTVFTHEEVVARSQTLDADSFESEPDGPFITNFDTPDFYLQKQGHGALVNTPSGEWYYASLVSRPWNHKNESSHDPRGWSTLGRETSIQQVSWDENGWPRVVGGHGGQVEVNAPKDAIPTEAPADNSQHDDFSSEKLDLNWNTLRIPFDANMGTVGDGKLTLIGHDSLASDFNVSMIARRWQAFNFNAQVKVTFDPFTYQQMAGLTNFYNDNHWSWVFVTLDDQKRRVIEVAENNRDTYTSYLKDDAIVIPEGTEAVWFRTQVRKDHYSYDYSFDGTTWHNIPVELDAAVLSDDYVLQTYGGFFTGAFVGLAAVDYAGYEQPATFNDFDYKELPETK

Consider `O=[N+]([O-])c1ccc(O[C@@H]2OC[C@@H](O)[C@H](O)[C@H]2O)cc1` [p-nitrophenyl-β-D-xylopyranoside], for which the “p-nitrophenol release at 410 nm, XylA-containing crude cell extract” value is “amount of p-nitrophenol (pNP) released from p-nitrophenyl-β-D-xylopyranoside (pNPX) substrate”.
